Where “and” joins values, the source holds several entries; their conditions need not be identical. Equal entries are not always repeated. Where two headings read alike, the source gives them in different places.
Legend:
[1] = Pharmacokinetic study, single dose IP or oral gavage; assay type: in vivo, C57Bl/6 male mice; settings: for AUC(0-t) / Tmax / AUC(0-inf) / Cmax / half-life: male, C57Bl/6, mouse; for AUC(0-inf): read-out: AUCINF_obs (converted); for Cmax / half-life: 20 mg/kg; for half-life: read-out: T½ (elimination half-life) (converted)
Protocol: To evaluate the pharmacokinetic (PK) profile of M-I, a single dose (20 mg/kg) was given to C57Bl/6 male mice by either intraperitoneal injection (IP group; n = 3) or oral ga-vage (oral group; n = 3). A dose of 20 mg/kg was chosen based on previous publications. The average plasma concentration ± standard deviation at each time point is shown in Figure 5A and corresponding PK parameters are summarized in Table 2. M-I was rapidly absorbed with a maximum plasma concentration 1 h post-IP and PO dose. […] The observed elimination half-life was 0.9 h in the IP group and 2 h in the PO group. The oral group had loose stool, starting four hours post-dose, which had not re-solved by 8 h but all mice appeared normal after twenty-four hours. […] We therefore selected IP administration of M-I for subsequence studies.
The pharmacokinetic (PK) study of M-I was performed in male C57Bl/6 mice. A sin-gle dose of M-I (formulated at 2 mg/mL dissolved in 5% DMSO/95% of a 30% w:v Captisol solution) was administered either by intraperitoneal injection (IP group, n = 3) or oral ga-vage (PO group, n = 3). After dosing, 20 µL blood samples were collected into heparin pre-coated tubes at 5 min, 15 min, 30 min, 1 h, 2 h, 4 h, 6 h, 8 h and 24 h. Samples were centrifuged, and the plasma collected. M-I concentration was determined using liq-uid chromatography-mass spectrometry/mass spectrometry (LC-MS/MS) as described earlier.

JHU029 xenograft = experiment: Tumorigenicity assay, HNC xenograft model; assay type: in vivo, BALB/c athymic nude mice
Protocol: Figure 6 Therapeutic effect of momordicine-I in JHU029 xenograft model. JHU029 cells (1.5 × 10^6) cells were injected subcutaneously into the flank of nude mice. After the formation of a palpable tumor, mice were randomly divided into three groups (n = 5): Control (without any treatment), BME group (30% BME through drinking water) and M-I group (30 mg/kg IP, once in a day and every day). (A) Body weight was measured in control and treated mice. (B) Representative images of tumors in control and treatment groups. (C) Tumors were measured using a slide caliper and tumor volumes were calculated. Arrow indicates starting point BME/M-I treatment. (D) Control or treated tumor lysates were subjected to Western blot analysis for c-Met and c-Myc expression using specific antibodies and representative bands are shown. The blot was reprobed with an antibody to Actin for normalization. […] Small bar indicates standard error (*, p < 0.05; *** p < 0.001).
(§1) JHU029 or Cal27 cells (1.5 × 10^6) containing 40% Matrigel were injected subcutaneously into the flank of BALB/c athymic nude mice (7–8 weeks old). When the palpable tumor was developed (>60 mm^3), mice were divided into three groups randomly, 5 mice in each group. The control group was without any treatment. The BME group received 30% (v/v) BME through drinking water. M-I group received 30 mg/kg dose of M-I once in day, every day. Body weight was monitored, and tumor size was measured using a slide caliper and volume was calculated using the formula ½ L × W^2. After animal sacrifice tumors were dissected out and snap frozen in liquid nitrogen for further analysis. All the animal experiments were carried out in accordance NIH guidelines, following a protocol approved (1017) by the Institutional Animal Care and Use Committee (IACUC) of Saint Louis University.

[2] = Toxicity study, 5 days, body weight and serum chemistries; assay type: in vivo, C57Bl/6 male mice
Protocol: For toxicity analysis, mice (n = 3) were given 20 mg/ kg of M-I twice a day or 30 mg/kg IP dose of M-I once a day by IP injection for five days. In parallel, there were untreated control (n = 3) and BME treated group (n = 3) for comparison. Behavior and body weight of mice were monitored daily. The body weight in all the mice was stable, with no drastic changes seen in any of the mice tested. We collected blood on day six, and serum chemistries related to liver and kidney function were examined.
For toxicity study, C57Bl/6 male mice were received either 30% BME through drinking water or 20 mg/kg of M-I twice a day or 30 mg/kg of M-I once a day by IP injection for 5 days. There were three mice in each group, including untreated control. Blood was collected on day 6, and serum was prepared. Serum parameters related to hepatotoxicity (total bilirubin, alanine transaminase, aspartate transaminase, and alkaline phosphatase) and nephrotoxicity (urea and creatinine) were performed.

rat cardiac fibroblasts = settings: cited from earlier work
insulin secretion = settings: cited from earlier work
Cal27 xenograft = experiment: Tumorigenicity assay, HNC xenograft model; assay type: in vivo, BALB/c athymic nude mice
Protocol: Figure 7 Therapeutic effect of momordicine-I in Cal27 xenograft model. Cal27 cells (1.5 × 10^6) cells were injected subcutaneously into the flank of nude mice. After formation of palpable tumor, mice were randomly divided into three groups (n = 5): Control (without any treatment), BME group (30% BME through drinking water) and M-I group (30 mg/kg IP, once in a day and every day). (A) Body weight was measured in control and treated mice. (B) Tumors were measured using a slide caliper and tumor volumes were calculated. Arrow indicates starting point BME/ M-I treatment. (C,D) Control or treated tumor lysates were subjected to Western blot analysis for c-Met and c-Myc expression using specific antibodies and representative bands are shown. The blot was reprobed with an antibody to Actin for normalization. […] Small bar indicates standard error (*, p < 0.05; **, p < 0.01; *** p < 0.001).
as §1

[3] = JHU029 xenograft tumor lysates, Western blot, vs untreated control tumors
[4] = Cal27 xenograft tumor lysates, Western blot, vs control

CC(C)=CC(O)CC(C)[C@H]1CC[C@@]2(C)[C@@H]3[C@@H](O)C=C4[C@@H](CC[C@H](O)C4(C)C)[C@]3(C=O)CC[C@]12C (stereo partly drawn) [M-I, (3S, 7S, 8S, 9R, 10R, 13R, 14S, 17R) 3,7-dihydroxy-17-(4-hydroxy-6-methylhept-5-en-2-yl)-4,4,13,14-tetramethyl-2,3,7,8,10,11, 12,15,16,17-decahydro-1H-cyclopenta[a]phenanthrene-9-carbaldehyde]
adverse events in PK study ([1]; 20 mg/kg IP): No adverse events | AUC (%Extrap) ([1]; 20 mg/kg IP, plasma, mean ± SD): 0.33 ± 0.08% | AUC (%Extrap) ([1]; 20 mg/kg PO, plasma, mean ± SD): 6.84 ± 1.5% | T½ (elimination half-life) ([1]; 20 mg/kg PO, plasma, mean ± SD): 2.11 ± 0.3 h | adverse events in PK study ([1]; 20 mg/kg oral gavage, starting four hours post-dose, normal after twenty-four hours): loose stool | AUC(0-t) ([1]; 20 mg/kg IP, plasma, mean ± SD): 12700 ng·h/mL | Tmax ([1]; 20 mg/kg IP, plasma, mean ± SD): 1 h | AUC(0-inf) ([1]; 20 mg/kg IP, plasma, mean ± SD): 12800 ng·h/mL | AUC(0-t) ([1]; 20 mg/kg PO, plasma, mean ± SD): 643 ng·h/mL | Tmax ([1]; 20 mg/kg PO, plasma, mean ± SD): 1 ± 0.9 h | AUC(0-inf) ([1]; 20 mg/kg PO, plasma, mean ± SD): 688 ng·h/mL | Cmax ([1]; plasma, ip, 20 mg/kg IP, mean ± SD): 18 µM and 8430 ng/mL | half-life ([1]; plasma, ip, 20 mg/kg IP, plasma, mean ± SD): 0.9 ± 0.02 h | Cmax ([1]; plasma, po, 20 mg/kg PO, mean ± SD): 500 nM and 214 ng/mL | half-life ([1]; plasma, po, 20 mg/kg PO, plasma, mean ± SD): 2 h | c-Met expression in tumors (JHU029 xenograft; [3]): significant reduction | c-Myc expression in tumors (JHU029 xenograft; [3]): significant reduction | tumor growth reduction, M-I compared with BME (JHU029 xenograft; JHU029 xenograft, nude mice, M-I 30 mg/kg IP once a day): better effect | tumor volume (JHU029 xenograft; JHU029 xenograft, nude mice, M-I 30 mg/kg IP once a day or 30% BME in drinking water, to day 32, vs untreated control): significantly reduced | sudden drop in body weight (JHU029 xenograft; JHU029 xenograft, three out of five mice on Day 20, weight gained back, M-I 30 mg/kg IP once a day): ~ 10% | body weight ([2]; M-I 20 mg/kg twice a day or 30 mg/kg once a day IP, or 30% BME in drinking water, five days): stable | serum chemistries (total bilirubin, alanine transaminase, aspartate transaminase, alkaline phosphatase, creatinine, urea, glucose) versus untreated control ([2]; blood on day six, M-I IP for five days or 30% BME in drinking water): comparable | effect on high-glucose-induced cell proliferation and collagen synthesis (rat cardiac fibroblasts): inhibitory effects | insulin secretion in vitro (insulin secretion): stimulate insulin secretion | c-Met expression in tumors (Cal27 xenograft; [4]): significant reduction | c-Myc expression in tumors (Cal27 xenograft; [4]): significant reduction | reduction of tumor growth (Cal27 xenograft; Cal27 xenograft, nude mice, M-I 30 mg/kg IP once a day or 30% BME in drinking water): ~ 50% | body weight (Cal27 xenograft; Cal27 xenograft, throughout the experiment): increasing body weight

Source: article PMC8003975 (Cancers, 2021)
